Test results taken from US4933359A, “4(5)-substituted imidazole derivatives as α2 -adrenergic receptor blockers” (Farmos-Yhtyma Oy, priority 1986, dated 1990).

Legend:
[1] = molecular target: T1, α2-receptors of the central nervous system (Rattus norvegicus, UniProt P22909); test: central α2-blocking effect in vivo: reversal of detomidine-induced mydriasis in anaesthetized rat; settings: iv, standard dose of detomidine i.v., then increasing i.v. doses of antagonist, read-out: ED50, dose producing a 50 percent reversal of detomidine-induced mydriasis
T1 construct: from tissue; host or cells: living anaesthetized rat, central nervous system
T1 sequence (P22909 1-465): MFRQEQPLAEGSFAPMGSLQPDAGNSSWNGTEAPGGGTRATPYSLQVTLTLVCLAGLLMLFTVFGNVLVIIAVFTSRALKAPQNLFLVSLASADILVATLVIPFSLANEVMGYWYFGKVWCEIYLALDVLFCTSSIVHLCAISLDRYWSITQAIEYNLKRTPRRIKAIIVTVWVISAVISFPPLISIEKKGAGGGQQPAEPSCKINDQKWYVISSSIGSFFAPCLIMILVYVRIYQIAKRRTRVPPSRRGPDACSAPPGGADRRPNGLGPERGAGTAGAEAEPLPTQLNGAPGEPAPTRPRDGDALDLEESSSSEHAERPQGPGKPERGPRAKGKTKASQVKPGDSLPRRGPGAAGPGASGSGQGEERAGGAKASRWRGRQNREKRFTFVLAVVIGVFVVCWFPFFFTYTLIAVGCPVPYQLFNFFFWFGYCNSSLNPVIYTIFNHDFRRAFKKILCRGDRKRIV
Protocol: The central α2 -blocking effect of the compounds of the invention in vivo was studied. It is known that in the rat α2 -agonists induce dilation of the pupil (mydriasis) and that this effect is transmitted via α2 -receptors of the central nervous system. In an anaesthetized rat, a standard dose of detomidine was administered intravenously. Thereafter increasing doses of the antagonist under test were injected intravenously and the reversal of detomidine-induced mydriasis was observed. The ED50 value of the antagonist, i.e. the dose producing a 50 percent reversal, was determined.

[2] = molecular target: T2, α2-receptors (mouse vas deferens) (Mus musculus, UniProt Q01338); test: α2-antagonism in vitro, isolated electrically stimulated mouse vas deferens (pA2 vs detomidine); assay type: cell-based; settings: antagonist given prior to agonist detomidine
T2 construct: isolated, electrically stimulated mouse vas deferens preparation; from tissue; host or cells: mouse vas deferens
T2 sequence (Q01338 1-465): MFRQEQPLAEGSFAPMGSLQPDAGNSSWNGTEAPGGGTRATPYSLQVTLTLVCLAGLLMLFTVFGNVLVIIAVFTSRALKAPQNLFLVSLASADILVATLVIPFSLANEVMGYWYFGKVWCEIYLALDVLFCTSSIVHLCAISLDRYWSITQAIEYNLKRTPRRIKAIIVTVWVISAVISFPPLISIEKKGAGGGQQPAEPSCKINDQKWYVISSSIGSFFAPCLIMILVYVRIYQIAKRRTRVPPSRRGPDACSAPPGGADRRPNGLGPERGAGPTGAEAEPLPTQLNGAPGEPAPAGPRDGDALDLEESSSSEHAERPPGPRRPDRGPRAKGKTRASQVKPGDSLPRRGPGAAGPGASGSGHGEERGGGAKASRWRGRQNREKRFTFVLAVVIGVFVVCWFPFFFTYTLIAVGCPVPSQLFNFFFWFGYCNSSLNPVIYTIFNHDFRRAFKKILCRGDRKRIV
Protocol: The α2 -antagonism of these compounds was determined in vitro using the isolated, electrically stimulated mouse vas deferens preparation (Marshall et al., Br. J. Pharmac. 62, 147, 151, 1978). In this model, an α2 -agonist (detomidine) blocks electrically stimulated muscular contractions and the effect of the α2 -antagonist is seen by administering it prior to the agonist and by determining its pA2 value.
Compound mouse vas deferens

α2-receptors = settings: Virtanen et al., 1983; cited from earlier work

| SMILES | Kb [2] [nM] | other results |
| --- | --- | --- |
| CC=C1c2ccccc2CC1(C)c1cnc[nH]1 (stereo not shown) [Compound VI, 4(5)-(2,3-dihydro-1-ethylidene-2-methyl-1H-inden-2-yl)-imidazole] |  | ED50 [1]: 0.001 mg/kg |
| C=C1c2ccccc2CC1(C)c1cnc[nH]1 (stereo not shown) [Compound V, 4(5)-(2,3-dihydro-2-methyl-1-methylene-1H-inden-2-yl)-imidazole] |  | ED50 [1]: 0.03 mg/kg |
| CC(C)C1(c2cnc[nH]2)Cc2ccccc2C1 [Compound III, 4(5)-(2,3-dihydro-2-isopropyl-1H-inden-2-yl)imidazole] | 398 |  |
| C=CC1(c2cnc[nH]2)Cc2ccccc2C1 [Compound IV, 4(5)-(2,3-dihydro-2-vinyl-1H-inden-2-yl)imidazole] | 25.1 |  |
| C=C(C)C1(c2cnc[nH]2)Cc2ccccc2C1 [Compound II, 4(5)-(2,3-dihydro-2-isopropenyl-1H-inden-2-yl)imidazole] | 100 |  |
| CC(C)(O)C1(c2cnc[nH]2)Cc2ccccc2C1 [Compound I, 2-[2,3-dihydro-2-[imidazol-4(5)-yl]-1H-inden-2-yl]-2-propanol] | 3980 |  |
| Cc1cccc(Cc2c[nH]cn2)c1C [detomidine] |  | α2-receptor stimulation responsible for primary pharmacodynamic effects, e.g. sedation (in words) (α2-receptors): ability to stimulate α2 -receptors |
